From ChEMBL document CHEMBL1157539, “Thousands of chemical starting points for antimalarial lead identification” (Nature, 2010)

What follows are compounds tested on Plasmodium falciparum (assay: GSK_TCMDC: Inhibition of Plasmodium falciparum 3D7 in whole erythrocytes, using parasite LDH activity as an index of growth.). Details: Plasmodium falciparum, 3D7.
Assay type: functional, organism-based

Structure (SMILES) | XC50 [nM]
CCN1CCC(N(Cc2ccc(-c3ccc(C(F)(F)F)cc3)o2)C(=O)Cn2c(CCc3cccc(F)c3F)nc(=O)c3ccccc32)CC1 | 1140
COCCCNc1sc(S(=O)(=O)c2ccccc2)nc1S(=O)(=O)c1ccc(Cl)cc1 | 877
NC1=NC(c2ccccc2)N(c2ccc(Cl)c(Cl)c2)C(N)=N1 (configuration not stated) | 14.6
O=C(/C=C/c1cccc(Cl)c1)Nc1ccc2nc(CN3CCCC3)ccc2c1 | 255
CN1CCCC(CN2CCN(Cc3cccc(-c4ccc(-c5nc6ccccc6[nH]5)cc4)c3)CC2)C1 (configuration not stated) | 157
N#Cc1cccc(Nc2nccc(NCC(O)c3ccccc3C(F)(F)F)n2)c1 (configuration not stated) | 827
CNCCNCc1ccc(-c2ccc(-c3nc4cc(C(F)(F)F)ccc4[nH]3)s2)cc1 | 604
Cc1ccc2[nH]c(Nc3ccc(Nc4nc5cc(C)ccc5[nH]4)c(C)c3)nc2c1 | 769
O=C1c2ccc([N+](=O)[O-])cc2C(=O)N1c1ccc2[nH]ncc2c1 | 1150
COc1cccc(-c2cc(-c3ccc(NC(=O)c4ccccc4)cc3)c3c(N)ncnc3n2)c1 | 587
CCOC(=O)c1ccc(NC(=O)Nc2cccc(-c3cccc(-c4nc5cccc(C)c5[nH]4)c3)c2)cc1 | 106
Cc1cc(N[C@@H](CC(C)C)C(=O)NCc2cccc(F)c2)nc(NCC2CCCCC2)n1 | 834
Cc1cnc(Nc2ccccc2)nc1NCCC(=O)Nc1ccccc1 | 1160
Cc1cc(NCCc2ccccc2)nc(NC(=N)Nc2cccc([N+](=O)[O-])c2)n1 | 140
O=C(Nc1ccc(CN2CCCCC2)cc1)c1ccc(COc2ccc([N+](=O)[O-])cc2)o1 | 996
O=C(Cn1c(SCc2cccc(F)c2F)cc(=O)c2ccccc21)N(CCCn1ccnc1)Cc1ccc(-c2ccc(C(F)(F)F)cc2)cc1 | 1320
COc1c(C2CCN(CCN3CCC(NC(=O)c4ccc(-c5ccc(C(F)(F)F)cc5)cc4)CC3)CC2)ccc2c1CCCC2 | 1360
O=C(Nc1cccc(CN2CCCN(Cc3cccc(O)c3)CC2)c1)c1ccc(Cl)c(Cl)c1 | 664
CCc1cc(C(=O)c2cccc(C)c2)c(NC(=O)CN2CCN(C(=O)c3ccco3)CC2)s1 | 451
COCCNCc1cccc(-c2ccc(CN(C(=O)NC3CCCCC3)C3CCN(Cc4ccccc4)CC3)cc2)c1 | 759
CN1CCC(NCc2ccc(-c3cccc(S(=O)(=O)NCCc4ccccn4)c3)cc2)CC1 | 993
c1ccc(-c2ccc(-c3nc4ccccc4[nH]3)cc2)cc1 | 809
COCC(=O)N(Cc1ccccc1-c1ccc(CNCCc2ccccc2)cc1)C1CCN(Cc2ccccc2)CC1 | 895
CCc1nc(N)nc(N)c1CCCOc1ccccc1Cl | 105
O=C(c1ccco1)N1CCN(c2ccc([N+](=O)[O-])c(NC3CC3)c2)CC1 | 747

Structure (SMILES) | XC50 [nM]
COc1ccc(CCNCCCCCCNCCc2ccc(-c3ccccc3)cc2)cc1OC | 958
Cc1cccc(C(=O)NCCCN2CCC(NC(=O)/C=C/c3ccc(Cl)c(Cl)c3)CC2)c1 | 1700
O=C(CSc1nccn1C1CCCCC1)Nc1cc(C(F)(F)F)ccc1Cl | 402
Brc1ccc(Nc2nc(NCc3ccccc3)c3ccccc3n2)cc1 | 337
CCN(CC)CCOc1cc2c(cc1Br)-c1cc(Br)c(OCCN(CC)CC)cc1C2=NO | 1090
FC(F)(F)c1ccc2[nH]c(-c3ccc(-c4cccc(CNCCN5CCNCC5)c4)s3)nc2c1 | 1040
CCCCC1(c2ccc(F)cc2)NC(=O)N(CC(=O)c2cc(C)n(Cc3ccco3)c2C)C1=O (configuration not stated) | 983
CC(=O)c1ccc(N2CCN(CCC3(c4ccc(Cl)c(Cl)c4)COCN(C(=O)c4ccccc4)C3)CC2)cc1 (configuration not stated) | 925
O=C(Nc1ccc2c(c1)CCN2C1CCN(Cc2cccc(F)c2F)C1)c1ccco1 (configuration not stated) | 787
Oc1ccc2[nH]c(-c3ccc(OC(F)(F)F)cc3)nc2c1CNC1CCCC1 | 1750
Clc1ccc2c(NN=Cc3ccco3)ccnc2c1 | 1100
Cc1cccc2nc(-c3ccc(-c4cccc(CNCCCNS(C)(=O)=O)c4)cc3)[nH]c12 | 1220
O=C1CCCN1CCCNCc1ccc(-c2ccc(-c3nc4cc(F)ccc4[nH]3)s2)cc1 | 896
CC[C@H](C)CNC(=O)c1cncc(-c2ccc(CNC3CCCC3)cc2)c1 | 1120
CC[C@@]1(O)C(=O)OCc2c1cc1n(c2=O)Cc2c-1nc1cc3c(cc1c2CN1CCN(C)CC1)OCCO3 | 446
COc1ccc(CCN2CCC(CN(C)Cc3cnn(-c4ccccc4)c3)CC2)cc1 | 1160
CCn1c(-c2nonc2N)nc2c(-c3cccc(Cl)c3)ncc(OCCCNCc3cnc(C)nc3N)c21 | 1010
Cc1cc(N)c2cc(NC(=O)c3cc(C(F)(F)F)cc(C(F)(F)F)c3)ccc2n1 | 86.8
Cc1nc(NC(=N)N)nc2ccc(C(C)(C)C)cc12 | 747
O=C(Nc1cc(F)cc(F)c1)N1CCOC(CCN2CCC3(CCc4ccccc43)CC2)(c2ccc(Cl)c(Cl)c2)C1 (configuration not stated) | 275
CCCC(C)Nc1nc(C)cc(N[C@@H](CC(C)C)C(=O)NCCOc2ccccc2)n1 (some centres not stated) | 1710
O=S(=O)(NCCN1CCCC1)c1ccc(-c2cccc(CNC3Cc4ccccc4C3)c2)cc1F | 1020
NCCc1cccc(-c2cnc3[nH]cc(-c4ccc(C(=O)O)cc4)c3c2)c1 | 397
O=C(COC(=O)c1cccc(S(=O)(=O)N2CCc3ccccc32)c1)NNC(=O)c1cccs1 | 1250
CCCn1c(O)nnc1SCC(=O)Nc1cc(C(F)(F)F)ccc1Cl | 222

Structure (SMILES) | XC50 [nM]
CCCc1ccc(S(=O)(=O)NC2CCN(C(=O)Nc3ccc(I)cc3)CC2)cc1 | 872
O=C(NCc1cccc(F)c1)Nc1cccc(-c2cccc(-c3nc4cc(C(F)(F)F)ccc4[nH]3)c2)c1 | 330
NCC1CCCN1Cc1ccc(-c2cccc(-c3nc4cc(C(F)(F)F)ccc4[nH]3)c2)cc1 (configuration not stated) | 833
O=C(Nc1cccc(F)c1)N(Cc1ccc(-c2cccc(CN3CCNCC3)c2)cc1)C1CCN(Cc2ccccc2)CC1 | 763
COc1cccc(C=Cc2nc(=O)c3ccccc3o2)c1OC | 64.4
COc1cc(Cc2cnc(N)nc2N)c2ccsc2c1OC | 1070
Cc1cccc2nc(-c3ccc(-c4cccc(NC(=O)c5cccc(C(N)=O)c5)c4)cc3)[nH]c12 | 1130
CCCCCCNc1c2ccccc2nc2ccccc12 | 949
CC(C)(C)c1ccc(CNC(=O)c2cc(CNC3CCNCC3)ccc2O)cc1 | 710
CCN(CCCN1CCCC1)c1cc(C)nc(Nc2ccc(Cl)cc2)n1 | 344
CC(C)CCN(Cc1cncn1Cc1cccc(C(F)(F)F)c1)C(=O)c1ccccc1C#N | 614
CCCc1c(C(=O)NC2CCC(CN3CCC(c4c[nH]c5ccccc45)CC3)CC2)cnn1-c1c(Cl)cc(Cl)cc1Cl (configuration not stated) | 820
N#Cc1ccc2c(c1)CCN(CCC1CCC(NC(=O)c3cc4cccc([N+](=O)[O-])c4[nH]3)CC1)C2 (configuration not stated) | 684
CC(C)(C)c1ccc(C(=O)Nc2ccc3nc4c(c(N)c3c2)CCCC4)cc1 | 175
COc1ccc(-c2cnc3ccc(NCc4ccc(F)cc4)nn23)cc1OC | 834
O=C(N[C@@H](Cc1ccccc1)C(=O)O)c1cc(-c2ccc(F)cc2)no1.O=C(N[C@@H](Cc1ccccc1)C(=O)O)c1conc1-c1ccc(F)cc1 | 802
CCCN(CCC)CCCN(CCCN(CCC)CCC)c1cc(C)nc(Nc2ccc3cc(Br)ccc3c2)n1 | 210
CCc1c(C)c(C#N)c2nc3ccccc3n2c1NCc1ccco1 | 698
CC(C)CNCc1cccc(-c2cccc(CN(C(=O)c3cccs3)C3CCN(Cc4ccccc4)CC3)c2)c1 | 896
CN(C)c1cccc2c1nc(-c1ccc3c(c1)CCO3)n2CCNCc1ccccc1 | 734
COc1ccc(C2CC(=O)C3=C(C2)NC(C)=C(C(=O)OC(C)C)C3c2c(F)cccc2Cl)cc1OC (configuration not stated) | 824
CO/C(=C\C=C\c1cc2cc(Cl)c(Cl)cc2[nH]1)C(=O)NCCCN1CCN(Cc2ccccc2)CC1 | 912
O=C1C2C(c3ccc(Cl)c(Cl)c3)N3CC(OCc4ccccc4)CC3(C(=O)O)C2C(=O)N1c1ccc(Br)cc1 (configuration not stated) | 336
COc1cccc(C23NC(=Nc4nc5ccccc5[nH]4)NC2(c2cccc(OC)c2)NC(=Nc2nc4ccccc4[nH]2)N3)c1 (configuration not stated) | 157
Cc1cc(N2CCN(CC3CCN(C)CC3)CC2)nc(Nc2ccc(Br)cc2)n1 | 442

Structure (SMILES) | XC50 [nM]
Cc1ccc(-c2nc3cc(C(=O)NC4CCN(Cc5ccccc5)CC4)ccc3[nH]2)cc1 | 744
CC(=O)Nc1ccc(CN2CCC(NC(=O)c3ccc(-c4cccc(Cl)c4)s3)CC2)cc1 | 792
CCCn1c(Sc2ccc(C#N)c([N+](=O)[O-])c2)nnc1-c1ccc(Cl)cc1 | 537
CCOc1ccc2[nH]c(C)cc(=NN=Cc3cccnc3)c2c1 | 155
COc1cc2nc(N3CCC(CNC(=O)/C=C/c4cccc(C)c4)CC3)nc(N)c2cc1OC | 684
N#Cc1ccc(N2CCN(Cc3cccc(-c4cccc(-c5nc6cc(F)ccc6[nH]5)c4)c3)CC2)nc1 | 959
Cc1ccc(C)c(Cn2c(N3CCC(C(=O)NCc4cccs4)CC3)nc3ccccc32)c1 | 938
Nc1ncnc2c1ncn2C(CO)Cc1ccc(O)cc1 (configuration not stated) | 1030
COc1ccc2[nH]ccc(=NN=Cc3ccccc3)c2c1 | 110
CCCCC/C=C/C(=O)NC1CCC(CN2CCC(c3c[nH]c4ccccc34)CC2)CC1 (configuration not stated) | 982
O=C(/C=C/c1c[nH]c2ccccc12)NCCCCCN1CCC(c2c[nH]c3ccccc23)CC1 | 932
CCOC(=O)c1ccc(OCc2ccc(-c3ccccc3)cc2)cc1 | 813
CCOCCCNc1ncc(-c2ccsc2)c(-c2nc(C)cs2)n1 | 272
CN(C)CCCOc1ccc(-c2csc(NC(=N)NCc3ccccc3)n2)cc1 | 278
C[C@@H](Oc1cc(-n2cnc3cc(SCCN4CCN(C)CC4)ccc32)sc1C(N)=O)c1ccccc1Cl | 507
O=C(N[C@@H](Cc1cc(F)cc(F)c1)[C@H](O)CNCc1cccc(C(F)(F)F)c1)c1cc(C2CCCC2)cc(N2CCCC2=O)c1 | 803
c1ccc(-c2ccc(-c3csc(Nc4ccncc4)n3)cc2)cc1 | 1010
O=C(Nc1ccc(OC2CCN(Cc3ccsc3)CC2)c(Cl)c1)c1cccs1 | 600
COc1ccc2[nH]c(C(=O)Nc3ccc4[nH]c(-c5ccccc5)nc4c3)cc2c1 | 834
O=C(Nc1ccc(N2CCCCC2)c(Cl)c1)c1ccc(Br)o1 | 549
Cc1cc2c(cc1C(F)(F)F)N(C(=O)Nc1cc(OCCN(C(C)C)C(C)C)cc(C(F)(F)F)c1)CC2 | 259
c1cc(CNCCc2ccncc2)cc(-c2ccc(-c3nc4ccccc4[nH]3)cc2)c1 | 146
